Entries after “also recorded” stand apart in the source; their conditions may differ.
Tests used:
Format in all cases: cell-based, human
ACHN-CSCG cells = test: In vitro growth (cell counts), parental empty-vector cells; conditions: 10 nM CCI-779, day 5
Experimental: (§1) FIGS. 1A-1E. Effects of VHL knockdown on sensitivity to CCI-779. (a) Immunoblotting of lysates derived from shRNA and control (empty vector, V) in SN12C, using antibodies against VHL (both isoforms detected), HIF-1α, HIF-2α, GLUT-1, CA-IX and β-Actin (as a loading control). (b) SN12C-CSCG and SN12C-VHLshRNA cells (1×10^5) were cultured in 10% serum rich media, in the presence of vehicle, 1 or 10 nM of CCI-779 for 5 days. Cell growth was measured by cell counts (n=3). […] (c) SN12C-CSCG (C1) and SN12C-CSCG shVHL RNA (C2) cells were injected into SCID mice at a dose of 1×10^6 cells per mouse (n=30). […] Phosphorylated-S6 protein in SN12C-CSCG and SN12C-VHL shRNA xenograft tumors treated with vehicle or 0.1 mg/kg of CCI-779 was measured by immunoblot C3 and C4). […]
(§2) For in vitro experiments, cells (5×10^4) were plated and treated with 1 and 10 nM CCI-779 (kind gift of J. Gibbons, Wyeth) or vehicle (ethanol). On day 5-post treatment, cells were trypsinized, resuspended in DMEM with 10% FBS and counted using the VI CELL counter (Beckman Coulter), according to the manufacturer's instructions. […] In vivo tumorigenicity was measured by injection of 5×10^5 SN12C-CSCG, ACHN-CSCG, SN12C-CSCG-VHLshRNAi, ACHN-CSCG-VHLshRNAi, SN12C-CSCG-VHLshRNAi-pBABE, SN12C-CSCG-VHLshRNAi-pBABE-HA-HIF-2α (P405A; P531A) cells in 100 μl of Matrigel (Collaborative Biomedical) subcutaneously into the flanks of SCID mice. […]

SN12C-CSCG cells = test: as above; conditions: 1 and 10 nM CCI-779, day 5, 10% serum; b106 at 10 nM
Experimental: as §1, §2

SN12C-VHL shRNA cells = test: In vitro growth (cell counts), VHL knockdown cells
Experimental: (§3) FIGS. 1A-1E. Effects of VHL knockdown on sensitivity to CCI-779. (a) Immunoblotting of lysates derived from shRNA and control (empty vector, V) in SN12C, using antibodies against VHL (both isoforms detected), HIF-1α, HIF-2α, GLUT-1, CA-IX and β-Actin (as a loading control). (b) SN12C-CSCG and SN12C-VHLshRNA cells (1×10^5) were cultured in 10% serum rich media, in the presence of vehicle, 1 or 10 nM of CCI-779 for 5 days. Cell growth was measured by cell counts (n=3). […] (c) SN12C-CSCG (C1) and SN12C-CSCG shVHL RNA (C2) cells were injected into SCID mice at a dose of 1×10^6 cells per mouse (n=30). When tumor volume reached 150 mm^3, mice were randomized to daily treatment with vehicle or 0.1 mg/kg of CCI-779. The change in tumor volume is plotted. Phosphorylated-S6 protein in SN12C-CSCG and SN12C-VHL shRNA xenograft tumors treated with vehicle or 0.1 mg/kg of CCI-779 was measured by immunoblot C3 and C4). Equal loading verified by actin immunoblots. […] (e) Schematic of shRNA-expressing lentivirus directed against VHL in pCSCG vector.
(§4) For in vitro experiments, cells (5×10^4) were plated and treated with 1 and 10 nM CCI-779 (kind gift of J. Gibbons, Wyeth) or vehicle (ethanol). On day 5-post treatment, cells were trypsinized, resuspended in DMEM with 10% FBS and counted using the VI CELL counter (Beckman Coulter), according to the manufacturer's instructions. Cell counts were done in triplicate and repeated on at least 3 independent occasions. In vivo tumorigenicity was measured by injection of 5×10^5 SN12C-CSCG, ACHN-CSCG, SN12C-CSCG-VHLshRNAi, ACHN-CSCG-VHLshRNAi, SN12C-CSCG-VHLshRNAi-pBABE, SN12C-CSCG-VHLshRNAi-pBABE-HA-HIF-2α (P405A; P531A) cells in 100 μl of Matrigel (Collaborative Biomedical) subcutaneously into the flanks of SCID mice. Tumor size were measured weekly in three dimensions using calipers as described (Klein, K. A. et al. Nat Med 3, 402-8 (1997)). When tumors reached 200 mm^3, all tumors received 0.1 mg/kg/daily of CCI-779 or vehicle. All mouse experiments were performed in compliance with the guidelines of the Animal Research Committee of the University of California at Los Angeles.
(§5) SN12C and ACHN (NCI60, DTP) were maintained in Dulbecco's modified Eagle's Medium (DMEM) supplemented with 10% FBS. […] On day 5-post treatment, cells were trypsinized, resuspended in DMEM with 10% FBS and counted using the VI-Cell XR automated cell viability analyzer (Beckmann Coulter). […] In vivo tumorigenicity was measured by injection of 5×10^5 SN12C-CSCG, ACHN-CSCG, SN12C-CSCG-VHL shRNA, ACHN-CSCG-VHL shRNA, SN12C-CSCG-VHL shRNA-pBABE, SN12C-CSCG-VHL shRNA-pBABE-HA-HIF-2α (P405A; P531A) cells in 100 μl of Matrigel (Collaborative Biomedical) subcutaneously into the flanks of SCID mice. Tumor size were measured weekly in three dimensions using calipers as described. […]

ACHN-VHL shRNA cells = test: In vitro growth (cell counts), VHL knockdown cells
Experimental: as §3, §4, §5

[1] = dose-dependent, 1 and 10 nM CCI-779, day 5

CO[C@H]1C[C@@H]2CC[C@@H](C)[C@@](O)(O2)C(=O)C(=O)N2CCCC[C@H]2C(=O)O[C@H]([C@H](C)C[C@@H]2CC[C@@H](OC(=O)C(C)(CO)CO)[C@H](OC)C2)CC(=O)[C@H](C)/C=C(\C)[C@@H](O)[C@@H](OC)C(=O)[C@H](C)C[C@H](C)/C=C/C=C/C=C/1C [CCI-779]
cell growth (ACHN-CSCG cells): not affected | cell growth (SN12C-CSCG cells): not affected; also recorded: not sensitive | sensitivity to CCI-779 in contrast to the parental cells (SN12C-VHL shRNA cells; 1 and 10 nM, in vitro): increased sensitivity | reduction of cell growth (SN12C-VHL shRNA cells; [1]): 70% | sensitivity to CCI-779 after stable VHL knockdown (ACHN-VHL shRNA cells; FIG. 1D): enhanced sensitivity | reduction of cell growth (ACHN-VHL shRNA cells; [1]): 70%

Reference: patent publication US9261498B2, “Biomarker for sensitivity to mTOR inhibitor therapy in kidney cancer” (The Regents of the University of California, priority 2005, dated 2016)
